The results in this text go back to patent US11970494B2, “6-heteroaryloxy benzimidazoles and azabenzimidazoles as JAK2 inhibitors” (Ajax Therapeutics, Inc., priority 2021, dated 2024).

SMILES strings stand for the structures. In brackets after ≈: the same amount, converted by molar mass.

Data set [1] concerns the target T1, JAK1 (Homo sapiens, UniProt P23458).
T1 construct: made in house; host or cells: T7 phage in BL21-derived E. coli or HEK-293 cells
Briefly: JAK Family Selectivity Assay: JAK1 vs JAK2 binding affinity. The settings on record: Kd JAK1 over Kd JAK2. Here is the method:
Provided compounds are evaluated for selectivity by comparing their JAK2 binding affinity (Kd) in the above JAK2 Binding Assay with their binding affinity (Kd) for one or more other kinases. Binding affinity for other kinases is determined as follows: Kinase-tagged T7 phage strains are prepared in an E. coli host derived from the BL21 strain. E. coli are grown to log-phase and infected with T7 phage and incubated with shaking at 32° C. until lysis. The lysates are centrifuged and filtered to remove cell debris. The remaining kinases are produced in HEK-293 cells and subsequently tagged with DNA for qPCR detection. Streptavidin-coated magnetic beads are treated with biotinylated small molecule ligands for 30 minutes at room temperature to generate affinity resins for kinase assays. The liganded beads are blocked with excess biotin and washed with blocking buffer (SeaBlock (Pierce), 1% BSA, 0.05% Tween 20, 1 mM DTT) to remove unbound ligand and to reduce non-specific binding. Binding reactions are assembled by combining kinases, liganded affinity beads, and test compounds in 1× binding buffer (20% SeaBlock, 0.17×PBS, 0.05% Tween 20, 6 mM DTT). Test compounds are prepared as 111× stocks in 100% DMSO. Kds are determined using an 11-point 3-fold compound dilution series with three DMSO control points. All compounds for Kd measurements are distributed by acoustic transfer (non-contact dispensing) in 100% DMSO. The compounds are then diluted directly into the assays such that the final concentration of DMSO is 0.9%. All reactions are performed in polypropylene 384-well plate. Each has a final volume of 0.02 ml. The assay plates are incubated at room temperature with shaking for 1 hour and the affinity beads are washed with wash buffer (1×PBS, 0.05% Tween 20). The beads are then re-suspended in elution buffer (1× PBS, 0.05% Tween 20, 0.5 μM non-biotinylated affinity ligand) and incubated at room temperature with shaking for 30 minutes. The kinase concentration in the eluates is measured by qPCR. […] In some embodiments, provided compounds may be JAK2-selective over one or more of the following kinases: JAK1, JAK3, and Tyk2.

The nature of data set [2]: Kinetic Solubility Assay. In kind it is physicochemical. To be noted: aqueous buffer, kinetic from dmso stock, kinetic solubility in PBS (pH 4.0 and pH 7.4 in method; pH of table values not stated), RT. How it is done:
Stock solutions of test compounds are prepared in DMSO at the concentration of 10 mM, and a stock solution of control compound is prepared in DMSO at the concentration of 30 mM. Diclofenac is used as positive control in the assay. 30 μL stock solution of each compound is placed into their a 96-well rack, followed by adding 970 μL of PBS at pH 4.0 and pH 7.4 into each vial of the cap-less solubility sample plate. This study is performed in duplicate. One stir stick is added to each vial and then vials are sealed using a molded PTDE/SIL 96-Well Plate Cover. The solubility sample plate is transferred to the Thermomixer comfort plate shaker and incubated at RT for 2 hours with shaking at 1100 rpm. After 2 hours incubation, stir sticks are removed using a big magnet and all samples from the solubility sample plate are transferred into the filter plate. All the samples are filtered by vacuum manifold. The filtered samples are diluted with methanol. Samples are analyzed by LC-MS/MS and quantified against a standard of known concentration in DMSO using LC coupled with Mass spectral peak identification and quantitation. The solubility values of the test compounds are calculated as follows, wherein INJ VOL is injection volume, DF is dilution factor, and STD is standard: […]

Data set [3] can be described thus: Hepatocyte Stability Assay, rat hepatocytes. It counts as in vitro ADME. To be noted: cryopreserved hepatocytes, read-out: Rat Heps CLint. Here is the method: 10 mM stock solutions of test compound and positive control are prepared in DMSO. Stock solutions are diluted to 100 μM by combining 198 μL of 50% acetonitrile/50% water and 2 μL of 10 mM stock solution. Verapamil is used as positive control in the assay. Vials of cryopreserved hepatocytes are thawed in a 37° C. water bath with gently shaking. The contents are poured into the 50 mL thawing medium conical tube. Vials are centrifuged at 100 g for 10 minutes at room temperature. Thawing medium is aspirated and hepatocytes are re-suspended with serum-free incubation medium to yield ˜1.5×10^6 cells/mL. Cell viability and density are counted using a Trypan Blue exclusion, and then cells are diluted with serum-free incubation medium to a working cell density of 0.5×10^6 viable cells/mL. A portion of the hepatocytes at 0.5×10^6 viable cells/mL are boiled for 5 min prior to adding to the plate as negative control to eliminate the enzymatic activity so that little or no substrate turnover should be observed. Aliquots of 198 μL hepatocytes are dispensed into each well of a 96-well non-coated plate. The plate is placed in the incubator for approximately 10 minutes. Aliquots of 2 μL of the 100 μM test compound and 2 μL positive control are added into respective wells of a non-coated 96-well plate to start the reaction. The final concentration of test compound is 1 μM. This assay is performed in duplicate. The plate is incubated in the incubator for the designed time points. 25 μL of contents are transferred and mixed with 6 volumes (150 μL) of cold acetonitrile with internal standard (100 nM alprazolam, 200 nM labetalol, 200 nM caffeine and 200 nM diclofenac) to terminate the reaction at time points of 0, 15, 30, 60, 90 and 120 minutes. Samples are centrifuged for 25 minutes at 3,220 g and aliquots of 150 μL of the supernatants are used for LC-MS/MS analysis.

Data set [4] addresses T2, JAK2 (JH1 domain-catalytic, Y1007F,Y1008F) kinase (Homo sapiens, UniProt O60674, Y1007F/Y1008F).
T2 construct: made in house; host or cells: transiently transfected HEK293 cells
Briefly: JAK2 Binding Assay (JAK2 JH1 Domain Binding Assay). To be noted: JAK2 JH1 domain binding, qPCR detection; read-out: JAK2 Kd.

Usually solubility stands for the dissolved amount per volume that the medium holds. Broadly, the Kd is the constant that tells how readily two partners part at equilibrium.

T1 sequence (P23458 whole entry): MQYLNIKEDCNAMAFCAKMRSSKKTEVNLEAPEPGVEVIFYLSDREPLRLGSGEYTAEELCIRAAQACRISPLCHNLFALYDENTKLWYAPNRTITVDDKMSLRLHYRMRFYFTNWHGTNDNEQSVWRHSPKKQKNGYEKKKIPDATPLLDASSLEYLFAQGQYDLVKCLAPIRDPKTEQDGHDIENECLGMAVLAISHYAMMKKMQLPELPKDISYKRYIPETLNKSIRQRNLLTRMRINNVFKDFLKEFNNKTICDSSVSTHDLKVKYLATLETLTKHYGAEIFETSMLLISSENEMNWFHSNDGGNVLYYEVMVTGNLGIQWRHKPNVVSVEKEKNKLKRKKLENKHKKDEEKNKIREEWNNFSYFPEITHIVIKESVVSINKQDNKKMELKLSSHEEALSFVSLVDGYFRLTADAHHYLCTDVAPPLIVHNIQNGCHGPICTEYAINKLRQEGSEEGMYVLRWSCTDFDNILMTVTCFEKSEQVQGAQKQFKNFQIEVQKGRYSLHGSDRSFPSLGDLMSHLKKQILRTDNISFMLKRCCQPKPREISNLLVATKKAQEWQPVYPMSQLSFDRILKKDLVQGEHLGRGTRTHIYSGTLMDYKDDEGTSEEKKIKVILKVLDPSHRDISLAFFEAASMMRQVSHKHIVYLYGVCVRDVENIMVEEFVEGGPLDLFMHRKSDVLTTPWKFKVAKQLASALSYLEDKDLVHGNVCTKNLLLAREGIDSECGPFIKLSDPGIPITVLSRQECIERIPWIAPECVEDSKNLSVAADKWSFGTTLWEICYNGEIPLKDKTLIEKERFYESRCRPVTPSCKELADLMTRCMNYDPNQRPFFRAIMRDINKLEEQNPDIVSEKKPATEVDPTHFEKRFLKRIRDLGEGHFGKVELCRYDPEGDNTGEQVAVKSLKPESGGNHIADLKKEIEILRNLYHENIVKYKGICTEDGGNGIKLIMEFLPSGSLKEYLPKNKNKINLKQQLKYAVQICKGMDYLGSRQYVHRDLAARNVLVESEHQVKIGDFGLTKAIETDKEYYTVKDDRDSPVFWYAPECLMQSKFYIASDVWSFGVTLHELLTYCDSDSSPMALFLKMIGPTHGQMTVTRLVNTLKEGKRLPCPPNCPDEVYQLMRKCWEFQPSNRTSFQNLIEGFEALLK
T2 sequence (O60674 849-1124 Y1007F/Y1008F limits assumed): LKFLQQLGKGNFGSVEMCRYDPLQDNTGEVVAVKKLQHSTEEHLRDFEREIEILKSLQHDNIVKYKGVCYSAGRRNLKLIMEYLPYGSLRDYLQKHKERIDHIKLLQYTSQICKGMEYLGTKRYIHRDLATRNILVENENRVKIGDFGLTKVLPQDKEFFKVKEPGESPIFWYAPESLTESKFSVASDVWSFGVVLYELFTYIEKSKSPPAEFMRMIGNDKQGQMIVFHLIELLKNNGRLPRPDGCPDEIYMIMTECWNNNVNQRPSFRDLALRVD

Regarding `COC(=O)Nc1cc(Oc2cnc3nc(Nc4cc(C(F)(F)F)cn(C)c4=O)n(C)c3c2C#N)ccn1` [Example I-3, Methyl (4-((7-cyano-1-methyl-2-((1-methyl-2-oxo-5-(trifluoromethyl)-1,2-dihydropyridin-3-yl)amino)-1H-imidazo[4,5-b]pyridin-6-yl)oxy)pyridin-2-yl)carbamate], in data set [1], the “JAK1/JAK2 Kd/Kd ratio” value is “A (Kd/Kd ratio ≥1000)”. Also, in data set [2], the solubility at 2 h was 0.1 to 9 µM (≈ 0.0514 to 4.63 µg/mL). Moreover, the CLint scaled at 1 μM in data set [3] was below 17 mL/min/kg. Moreover, the Kd in data set [4] is below 10 nM.

With `CN(C)C(=O)Nc1cc(Oc2cnc3nc(Nc4cc(C(F)(F)F)cn(C)c4=O)n(C)c3c2C#N)ccn1` [Example I-4, 3-(4-((7-cyano-1-methyl-2-((1-methyl-2-oxo-5-(trifluoromethyl)-1,2-dihydropyridin-3-yl)amino)-1H-imidazo[4,5-b]pyridin-6-yl)oxy)pyridin-2-yl)-1,1-dimethylurea], the “JAK1/JAK2 Kd/Kd ratio” value in data set [1] is “B (Kd/Kd ratio <1000 and ≥300)”. The solubility at 2 h in data set [2] was 9 to 100 µM (≈ 4.75 to 52.7 µg/mL). In addition, the CLint scaled at 1 μM in data set [3] lay in the range of 17 to 35 mL/min/kg. For the same compound, the Kd in data set [4] was below 10 nM.

On to `Cn1cc(C(F)(F)F)cc(Nc2nc3ncc(Oc4ccnc(NC(=O)N5CCC5)c4)c(C#N)c3n2C)c1=O` [Example I-7, N-(4-((7-cyano-1-methyl-2-((1-methyl-2-oxo-5-(trifluoromethyl)-1,2-dihydropyridin-3-yl)amino)-1H-imidazo[4,5-b]pyridin-6-yl)oxy)pyridin-2-yl)azetidine-1-carboxamide], for which, in data set [1], the “JAK1/JAK2 Kd/Kd ratio” value was “A (Kd/Kd ratio ≥1000)”. For the same compound, in data set [2], the solubility at 2 h fell in the range of 0.1 to 9 µM (≈ 0.0539 to 4.86 µg/mL). Besides, the CLint scaled at 1 μM in data set [3] was 17 to 35 mL/min/kg. For the same compound, in data set [4], the dissociation constant (Kd) is below 10 nM.

For the compound `CO[C@H]1CCN(C(=O)Nc2cc(Oc3cnc4nc(Nc5cc(C(F)(F)F)cn(C)c5=O)n(C)c4c3C#N)ccn2)C1` [Example I-14, (S)-N-(4-((7-cyano-1-methyl-2-((1-methyl-2-oxo-5-(trifluoromethyl)-1,2-dihydropyridin-3-yl)amino)-1H-imidazo[4,5-b]pyridin-6-yl)oxy)pyridin-2-yl)-3-methoxypyrrolidine-1-carboxamide], the “JAK1/JAK2 Kd/Kd ratio” value in data set [1] is on record as “A (Kd/Kd ratio ≥1000)”. In addition, the solubility at 2 h in data set [2] fell in the range of 0.1 to 9 µM (≈ 0.0584 to 5.25 µg/mL). Further, the CLint scaled at 1 μM in data set [3] is below 17 mL/min/kg. Besides, in data set [4], the Kd was below 10 nM.

Take `Cn1cc(C(F)(F)F)cc(Nc2nc3ncc(Oc4ccnc(NC(=O)OCCN5CCOCC5)c4)c(C#N)c3n2C)c1=O` [Example I-15, 2-Morpholinoethyl(4-((7-cyano-1-methyl-2-((1-methyl-2-oxo-5-(trifluoromethyl)-1,2-dihydropyridin-3-yl)amino)-1H-imidazo[4,5-b]pyridin-6-yl)oxy)pyridin-2-yl)carbamate]: the “JAK1/JAK2 Kd/Kd ratio” value in data set [1] is “B (Kd/Kd ratio <1000 and ≥300)”. In addition, the solubility at 2 h in data set [2] was 9 to 100 µM (≈ 5.52 to 61.4 µg/mL). Further, in data set [3], the CLint scaled at 1 μM was below 17 mL/min/kg. For the same compound, in data set [4], the Kd was below 10 nM.

As to `Cn1cc(C(F)(F)F)cc(Nc2nc3ncc(Oc4ccnc(NC(=O)O[C@@H]5CCOC5)c4)c(C#N)c3n2C)c1=O` [Example I-18, (R)-Tetrahydrofuran-3-yl(4-((7-cyano-1-methyl-2-((1-methyl-2-oxo-5-(trifluoromethyl)-1,2-dihydropyridin-3-yl)amino)-1H-imidazo[4,5-b]pyridin-6-yl)oxy)pyridin-2-yl)carbamate], the “JAK1/JAK2 Kd/Kd ratio” value in data set [1] was “C (Kd/Kd ratio <300 and ≥100)”. This compound also displayed a solubility at 2 h in data set [2] of 0.1 to 9 µM (≈ 0.057 to 5.13 µg/mL). Moreover, the CLint scaled at 1 μM in data set [3] was 17 to 35 mL/min/kg. Moreover, the dissociation constant (Kd) in data set [4] was below 10 nM.

Take `COC1CN(C(=O)Nc2cc(Oc3cnc4nc(Nc5cc6n(n5)CCCC6(F)F)n(C)c4c3C#N)ccn2)C1` [Example I-26, N-(4-((7-cyano-2-((4,4-difluoro-4,5,6,7-tetrahydropyrazolo[1,5-a]pyridin-2-yl)amino)-1-methyl-1H-imidazo[4,5-b]pyridin-6-yl)oxy)pyridin-2-yl)-3-methoxyazetidine-1-carboxamide]: in data set [2], the solubility at 2 h was 9 to 100 µM (≈ 4.95 to 55.1 µg/mL). In data set [3], the CLint scaled at 1 μM was below 17 mL/min/kg. In addition, in data set [4], the Kd is below 10 nM.

`Cn1c(Nc2cc3n(n2)CCOC3(C)C)nc2ncc(Oc3ccnc(NC(=O)O[C@@H]4CCOC4)c3)c(C#N)c21` [Example I-48, (R)-Tetrahydrofuran-3-yl(4-((7-cyano-2-((4,4-dimethyl-6,7-dihydro-4H-pyrazolo[5,1-c][1,4]oxazin-2-yl)amino)-1-methyl-1H-imidazo[4,5-b]pyridin-6-yl)oxy)pyridin-2-yl)carbamate] gave a solubility at 2 h in data set [2] of 0.1 to 9 µM (≈ 0.0546 to 4.91 µg/mL). Besides, the Kd in data set [4] is below 10 nM.

Compound `CN(C)C(=O)Nc1cc(Oc2cnc3nc(Nc4cc5n(n4)CCC54CCC4)n(C)c3c2C#N)ccn1` [Example I-56, 3-(4-((7-cyano-2-((5′,6′-dihydrospiro[cyclobutane-1,4′-pyrrolo[1,2-b]pyrazol]-2′-yl)amino)-1-methyl-1H-imidazo[4,5-b]pyridin-6-yl)oxy)pyridin-2-yl)-1,1-dimethylurea] showed a solubility at 2 h in data set [2] of 9 to 100 µM (≈ 4.49 to 49.9 µg/mL). Moreover, in data set [3], the CLint scaled at 1 μM fell in the range of 17 to 35 mL/min/kg. For the same compound, the Kd in data set [4] was below 10 nM.

`COC(=O)Nc1cc(Oc2cnc3nc(Nc4cc5n(n4)CCC54CCC4)n(C)c3c2C#N)ccn1` [Example I-57, methyl(4-((7-cyano-2-((5′,6′-dihydrospiro[cyclobutane-1,4′-pyrrolo[1,2-b]pyrazol]-2′-yl)amino)-1-methyl-1H-imidazo[4,5-b]pyridin-6-yl)oxy)pyridin-2-yl)carbamate]: the solubility at 2 h in data set [2] was in the range of 0.1 to 9 µM (≈ 0.0486 to 4.37 µg/mL). The CLint scaled at 1 μM in data set [3] lay within 35 to 45 mL/min/kg. Moreover, the Kd in data set [4] is below 10 nM.

On to `CC(=O)Nc1cc(Oc2cnc3nc(Nc4cc5n(n4)CCCC54CC4)n(C)c3c2C#N)ccn1` [Example I-114, N-(4-((7-cyano-2-((6′,7′-dihydro-5′H-spiro[cyclopropane-1,4′-pyrazolo[1,5-a]pyridin]-2′-yl)amino)-1-methyl-1H-imidazo[4,5-b]pyridin-6-yl)oxy)pyridin-2-yl)acetamide], for which the solubility at 2 h in data set [2] was in the range of 9 to 100 µM (≈ 4.23 to 47 µg/mL). Further, the CLint scaled at 1 μM in data set [3] lay in the range of 35 to 45 mL/min/kg. Moreover, the Kd in data set [4] is below 10 nM.

`CC(=O)Nc1cc(Oc2cnc3nc(Nc4cc5n(n4)CCOCC5(C)C)n(C)c3c2C#N)ccn1` [Example I-118, N-(4-((7-cyano-2-((4,4-dimethyl-4,5,7,8-tetrahydropyrazolo[1,5-d][1,4]oxazepin-2-yl)amino)-1-methyl-1H-imidazo[4,5-b]pyridin-6-yl)oxy)pyridin-2-yl)acetamide] yielded a solubility at 2 h in data set [2] of 9 to 100 µM (≈ 4.39 to 48.8 µg/mL). Besides, the CLint scaled at 1 μM in data set [3] was below 17 mL/min/kg. Further, the dissociation constant Kd in data set [4] is below 10 nM.
